Laboratory results reported in ChEMBL document CHEMBL6134909 (Eur J Med Chem, 2025).

How the values were obtained:
[1] = Metabolic stability in BALB/c mouse liver microsomes assessed as compound remaining at 2 to 10 uM measured after 60 mins in presence of furafylline/NADPH by LC-MS/MS analysis; type: ADME, Microsome; settings: with furafylline, dose 2-10 µM, read-out: Stability
[2] = Cytotoxicity against human A549 cells incubated for 48 hrs by CellTiter-Glo Luminescent Cell Viability Assay; type: toxicity, cell-based
[3] = Metabolic stability in human liver microsomes assessed as compound remaining at 2 to 10 uM measured after 60 mins in presence of quinidine/NADPH by LC-MS/MS analysis; type: ADME, Microsome; settings: with quinidine, dose 2-10 µM, read-out: Stability
[4] = Metabolic stability in human plasma at 2 uM measured after 60 mins by LC-MS/MS analysis; type: ADME, cell-free; settings: 1 h
[5] = Metabolic stability in human liver microsomes assessed as compound remaining at 2 to 10 uM measured after 60 mins in presence of ketoconazole/NADPH by LC-MS/MS analysis; type: ADME, Microsome; settings: with ketoconazole, dose 2-10 µM, read-out: Stability
[6] = Metabolic stability in human liver microsomes assessed as compound remaining at 2 to 10 uM measured after 60 mins in presence of NADPH by LC-MS/MS analysis; type: ADME, Microsome; settings: dose 2-10 µM, read-out: Stability
[7] = Metabolic stability in mouse plasma at 2 uM measured after 60 mins by LC-MS/MS analysis; type: ADME, cell-free; settings: 1 h
[8] = Metabolic stability in BALB/c mouse liver microsomes assessed as compound remaining at 2 to 10 uM measured after 60 mins in presence of quinidine/NADPH by LC-MS/MS analysis; type: ADME, Microsome; settings: with quinidine, dose 2-10 µM, read-out: Stability
Influenza A virus = assay: Anti-viral activity against Influenza A virus H7N1 pseudotype infected in human A549 cells assessed as inhibition of viral entry incubated for 48 hrs by Neolite Reporter Gene Assay; type: functional, organism-based; settings: H7N1, A549, 48 h
[9] = Metabolic stability in BALB/c mouse liver microsomes assessed as compound remaining at 2 to 10 uM measured after 60 mins in absence of NADPH by LC-MS/MS analysis; type: ADME, Microsome; settings: dose 2-10 µM, read-out: Stability
[10] = Metabolic stability in BALB/c mouse liver microsomes assessed as compound remaining at 2 to 10 uM measured after 60 mins in presence of ketoconazole/NADPH by LC-MS/MS analysis; type: ADME, Microsome; settings: with ketoconazole, dose 2-10 µM, read-out: Stability
[11] = Metabolic stability in BALB/c mouse liver microsomes assessed as compound remaining at 2 to 10 uM measured after 60 mins in presence of NADPH by LC-MS/MS analysis; type: ADME, Microsome; settings: dose 2-10 µM, read-out: Stability
[12] = Metabolic stability in human liver microsomes assessed as compound remaining at 2 to 10 uM measured after 60 mins in presence of furafylline/NADPH by LC-MS/MS analysis; type: ADME, Microsome; settings: with furafylline, dose 2-10 µM, read-out: Stability
[13] = Metabolic stability in human liver microsomes assessed as compound remaining at 2 to 10 uM measured after 60 mins in absence of NADPH by LC-MS/MS analysis; type: ADME, Microsome; settings: dose 2-10 µM, read-out: Stability
[14] = Metabolic stability in BALB/c mouse liver microsomes assessed as compound remaining at 2 to 10 uM measured after 60 mins in presence of sulfaphenazole/NADPH by LC-MS/MS analysis; type: ADME, Microsome; settings: with sulfaphenazole, dose 2-10 µM, read-out: Stability
[15] = Metabolic stability in human liver microsomes assessed as compound remaining at 2 to 10 uM measured after 60 mins in presence of sulfaphenazole/NADPH by LC-MS/MS analysis; type: ADME, Microsome; settings: with sulfaphenazole, dose 2-10 µM, read-out: Stability

COc1ccc(-c2nc3ncccn3c2NC2CCCCC2)cc1 showed a remaining at 1 h, up to 10 µM [1] of 12.2%, a CC50 at 48 h [2] of over 1250 µM and a remaining at 1 h, up to 10 µM [3] of 36.5%. For the same compound, the Stability [4] was “Stable”, the remaining at 1 h, up to 10 µM [5] was 65.1% and the remaining at 1 h, up to 10 µM [6] was 21.1%. For the same compound, the Stability [7] was “Stable”, the remaining at 1 h, up to 10 µM [8] was 4.2% and the EC50 (Influenza A virus) was 80 nM. For the same compound, the remaining at 1 h, up to 10 µM [9] was 113%, the remaining at 1 h, up to 10 µM [10] was 39.4% and the remaining at 1 h, up to 10 µM [11] was 2.3%. It also gave a remaining at 1 h, up to 10 µM [12] of 71%, a remaining at 1 h, up to 10 µM [13] of 113% and a remaining at 1 h, up to 10 µM [14] of 4.5%. It also gave a remaining at 1 h, up to 10 µM [15] of 32%.
For Fc1ccc(-c2nc3ncccn3c2NC2CCCCC2)cc1, the CC50 at 48 h [2] was over 100 µM and the EC50 (Influenza A virus) was 40 nM.
Compound CCOc1ccc(-c2nc3nc(C)cc(C)n3c2NC2CCCCC2)cc1OC has a CC50 at 48 h [2] of over 25 µM and an EC50 (Influenza A virus) of 5330 nM.
Cc1cc(C)n2c(NC34CC5CC(C)(CC(C)(C5)C3)C4)c(-c3ccccc3)nc2n1 gave a CC50 at 48 h [2] of 32 µM and an EC50 (Influenza A virus) of 13000 nM.
In the case of COCOc1ccc(-c2nc3ncc(Cl)cn3c2NC2CCCCCC2)cc1, the CC50 at 48 h [2] is reported as over 100 µM, the Stability [4] is reported as “Stable” and the remaining at 1 h, up to 10 µM [6] is reported as 13.8%. For the same compound, the Stability [7] was “Stable”, the EC50 (Influenza A virus) was 740 nM and the remaining at 1 h, up to 10 µM [9] was 111%. For the same compound, the remaining at 1 h, up to 10 µM [11] was 2.7% and the remaining at 1 h, up to 10 µM [13] was 111%.
For COCOc1ccc(-c2nc3ncccn3c2NC2CCCCCC2)cc1, the CC50 at 48 h [2] was 52 µM and the EC50 (Influenza A virus) was 160 nM.
Fc1cccc(-c2nc3ncccn3c2NC2CCCCC2)c1 showed a CC50 at 48 h [2] of over 25 µM and an EC50 (Influenza A virus) of 390 nM.
Compound Cc1cc(C)n2c(NC3CCCCC3)c(-c3ccc(Cl)s3)nc2n1 has a CC50 at 48 h [2] of 14.8 µM and an EC50 (Influenza A virus) of 2260 nM.
In the case of COc1ccc(COc2ccc(-c3nc4ncccn4c3NC3CCCCC3)c(F)c2)cc1, the CC50 at 48 h [2] is reported as 39 µM and the EC50 (Influenza A virus) is reported as 2100 nM.
With Cc1cc(C)n2c(NC3CCCCC3)c(-c3ccncc3)nc2n1 the CC50 at 48 h [2] was over 25 µM and the EC50 (Influenza A virus) was 890 nM.
With COCOc1ccc(-c2nc3ncccn3c2NC2CCCCC2)c(F)c1 the CC50 at 48 h [2] was over 100 µM, the Stability [4] was “Stable” and the remaining at 1 h, up to 10 µM [6] was 62.3%. The Stability [7] was “Stable”, the EC50 (Influenza A virus) was 80 nM and the remaining at 1 h, up to 10 µM [9] was 107%. The remaining at 1 h, up to 10 µM [11] was 9.2% and the remaining at 1 h, up to 10 µM [13] was 103%.
In the case of Fc1ccc(-c2nc3ncccn3c2NC2CCCCC2)cc1N1CCOCC1, the CC50 at 48 h [2] is reported as over 25 µM and the EC50 (Influenza A virus) is reported as 680 nM.
Fc1cc(-c2nc3ncc(Cl)cn3c2NC2CCCCC2)ccc1N1CCOCC1 gave a CC50 at 48 h [2] of over 100 µM and an EC50 (Influenza A virus) of 1610 nM.
Compound Fc1ccc(-c2nc3ncc(Cl)cn3c2NC2CCCC2)cc1F has a CC50 at 48 h [2] of 25 µM and an EC50 (Influenza A virus) of 8300 nM.
Work on Fc1ccc(-c2nc3ncccn3c2NC2CCCCC2)cc1F yielded a remaining at 1 h, up to 10 µM [1] of 7.3%, a CC50 at 48 h [2] of over 100 µM and a remaining at 1 h, up to 10 µM [3] of 10.9%. For the same compound, the Stability [4] was “Stable”, the remaining at 1 h, up to 10 µM [5] was 48.8% and the remaining at 1 h, up to 10 µM [6] was 2.2%. For the same compound, the Stability [7] was “Stable”, the remaining at 1 h, up to 10 µM [8] was 5.3% and the EC50 (Influenza A virus) was 70 nM. It also gave a remaining at 1 h, up to 10 µM [9] of 114%, a remaining at 1 h, up to 10 µM [10] of 51.7% and a remaining at 1 h, up to 10 µM [11] of 2.7%. It also gave a remaining at 1 h, up to 10 µM [12] of 19.7%, a remaining at 1 h, up to 10 µM [13] of 113% and a remaining at 1 h, up to 10 µM [14] of 5.5%. For the same compound, the remaining at 1 h, up to 10 µM [15] was 7.2%.
Cc1cc(C)n2c(NC3CCCCC3)c(-c3ccc(Cl)c(Cl)c3)nc2n1 gave a CC50 at 48 h [2] of 12 µM and an EC50 (Influenza A virus) of 2510 nM.
COc1cc(OC)cc(-c2nc3ncccn3c2NC2CCCCC2)c1 showed a CC50 at 48 h [2] of 47 µM and an EC50 (Influenza A virus) of 1890 nM.
Work on CN1CCN(c2ccc(-c3nc4ncc(Cl)cn4c3NC3CCCCC3)cc2F)CC1 yielded a CC50 at 48 h [2] of 31 µM and an EC50 (Influenza A virus) of 1490 nM.
Oc1ccc(-c2nc3ncc(Br)cn3c2NC2CCCCCC2)cc1 showed a CC50 at 48 h [2] of 45 µM and an EC50 (Influenza A virus) of 3650 nM.
In the case of COc1cc(-c2nc3nc(C)cc(C)n3c2NC2CCCCC2)ccc1F, the CC50 at 48 h [2] is reported as over 25 µM and the EC50 (Influenza A virus) is reported as 2060 nM.
In the case of COCOc1ccc(-c2nc3ncccn3c2NC2CCCCC2)cc1, the CC50 at 48 h [2] is reported as over 100 µM, the Stability [4] is reported as “Stable” and the remaining at 1 h, up to 10 µM [6] is reported as 63.7%. The Stability [7] was “Stable”, the EC50 (Influenza A virus) was 90 nM and the remaining at 1 h, up to 10 µM [9] was 109%. It also gave a remaining at 1 h, up to 10 µM [11] of 2.2% and a remaining at 1 h, up to 10 µM [13] of 105%.
Compound COCOc1cc(F)c(-c2nc3ncc(Cl)cn3c2NC2CCCCC2)c(OC)c1 has a CC50 at 48 h [2] of 48 µM and an EC50 (Influenza A virus) of 6650 nM.
For Cc1cc(C)n2c(NC3CCCCC3)c(-c3nccs3)nc2n1, the CC50 at 48 h [2] was over 25 µM, the Stability [4] was “Stable” and the remaining at 1 h, up to 10 µM [6] was 19.8%. The Stability [7] was “Stable”, the EC50 (Influenza A virus) was 490 nM and the remaining at 1 h, up to 10 µM [9] was 99.9%. It also gave a remaining at 1 h, up to 10 µM [11] of 29.4% and a remaining at 1 h, up to 10 µM [13] of 101%.
COCOc1ccc(-c2nc3ncc(Br)cn3c2NC2CCCCCC2)cc1 gave a CC50 at 48 h [2] of over 100 µM and an EC50 (Influenza A virus) of 1310 nM.
